Measured values reported in the supplement of paper PMC10307832.

Key:
Assay in all cases: relative viability (nuclei count vs DMSO), 5 days (fraction); higher = more cells survive
[1] = compound: CNC(=O)c1cc(Oc2ccc(NC(=O)Nc3ccc(Cl)c(C(F)(F)F)c3)cc2)ccn1 [Sorafenib]
Outline: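 Hoechst staining, done together with fixation and permeabilisation, marked nuclei for 4× imaging and MetaXpress counting. This followed 5 days without medium change after lung cancer cell lines, kept overnight at 37 °C in 1536-well plates, were pinned with five library-drug doses (not always all listed) spaced by √10 on vehicle-anchored plates. Viability is the ratio of treated-well to vehicle-well nuclei, expressed as a median across plates. Plates passed only at control CV below 25% with at least one doubling.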

[2] = compound: CNC(=O)c1cc(Oc2ccc(NC(=O)Nc3ccc(Cl)c(C(F)(F)F)c3)cc2)ccn1 [Sorafenib] + CC(C)C[C@H](NC(=O)[C@H](Cc1ccccc1)NC(=O)c1cnccn1)B(O)O [Bortezomib] (partner 0.002 µM)
Outline: (§1)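 Five library-drug doses in √10 steps were combined with a fixed anchor-drug dose, or a single drug was given alone, by pin tool to lung cancer cell lines in 1536-well plates the day after seeding. Nuclei were stained and counted after 5 days. Relative viability is the nuclei count in treated wells over that in vehicle wells, taken as the median of duplicate plates.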

[3] = compound: CNC(=O)c1cc(Oc2ccc(NC(=O)Nc3ccc(Cl)c(C(F)(F)F)c3)cc2)ccn1 [Sorafenib] + CC1(C)CCC(c2ccc(Cl)cc2)=C(CN2CCN(c3ccc(C(=O)NS(=O)(=O)c4ccc(N[C@H](CCN5CCOCC5)CSc5ccccc5)c(S(=O)(=O)C(F)(F)F)c4)cc3)CC2)C1 [Navitoclax] (partner 0.5 µM)
Outline: as §1

[4] = compound: CNC(=O)c1cc(Oc2ccc(NC(=O)Nc3ccc(Cl)c(C(F)(F)F)c3)cc2)ccn1 [Sorafenib] + COc1cc2c(Oc3ccc(NC(=O)C4(C(=O)Nc5ccc(F)cc5)CC4)cc3F)ccnc2cc1OCCCN1CCOCC1 [Foretinib] (partner 0.25 µM)
Outline: as §1

[5] = compound: CNC(=O)c1cc(Oc2ccc(NC(=O)Nc3ccc(Cl)c(C(F)(F)F)c3)cc2)ccn1 [Sorafenib] + CS(=O)(=O)CCNCc1ccc(-c2ccc3ncnc(Nc4ccc(OCc5cccc(F)c5)c(Cl)c4)c3c2)o1 [Lapatinib] (partner 2 µM)
Outline: as §1

[6] = compound: CNC(=O)c1cc(Oc2ccc(NC(=O)Nc3ccc(Cl)c(C(F)(F)F)c3)cc2)ccn1 [Sorafenib] + CS(=O)(=O)N1CCN(Cc2cc3nc(-c4cccc5[nH]ncc45)nc(N4CCOCC4)c3s2)CC1 [Pictilisib] (partner 1 µM)
Outline: as §1

[7] = compound: CNC(=O)c1cc(Oc2ccc(NC(=O)Nc3ccc(Cl)c(C(F)(F)F)c3)cc2)ccn1 [Sorafenib] + C[C@@H](Oc1cc(-c2cnn(C3CCNCC3)c2)cnc1N)c1c(Cl)ccc(F)c1Cl [Crizotinib] (partner 1 µM)
Outline: as §1

[8] = compound: CNC(=O)c1cc(Oc2ccc(NC(=O)Nc3ccc(Cl)c(C(F)(F)F)c3)cc2)ccn1 [Sorafenib] + C[C@]1(O)C[C@@H](c2nc(-c3ccc4ccc(-c5ccccc5)nc4c3)c3c(N)nccn32)C1 [Linsitinib] (partner 1 µM)
Outline: as §1

[9] = compound: CNC(=O)c1cc(Oc2ccc(NC(=O)Nc3ccc(Cl)c(C(F)(F)F)c3)cc2)ccn1 [Sorafenib] + Cc1nc(NC(=O)N2CCC[C@H]2C(N)=O)sc1-c1ccnc(C(C)(C)C(F)(F)F)c1 [Alpelisib] (partner 2 µM)
Outline: as §1

[10] = compound: CNC(=O)c1cc(Oc2ccc(NC(=O)Nc3ccc(Cl)c(C(F)(F)F)c3)cc2)ccn1 [Sorafenib] + O=C(c1cc(Cc2n[nH]c(=O)c3ccccc23)ccc1F)N1CCN(C(=O)C2CC2)CC1 [Olaparib] (partner 8 µM)
Outline: as §1

[11] = compound: CNC(=O)c1cc(Oc2ccc(NC(=O)Nc3ccc(Cl)c(C(F)(F)F)c3)cc2)ccn1 [Sorafenib] + CC(=O)Nc1cccc(-n2c(=O)n(C3CC3)c(=O)c3c(Nc4ccc(I)cc4F)n(C)c(=O)c(C)c32)c1 [Trametinib] (partner 0.02 µM)
Outline: as §1

[12] = compound: CNC(=O)c1cc(Oc2ccc(NC(=O)Nc3ccc(Cl)c(C(F)(F)F)c3)cc2)ccn1 [Sorafenib] + CC(=O)c1c(C)c2cnc(Nc3ccc(N4CCNCC4)cn3)nc2n(C2CCCC2)c1=O [Palbociclib] (partner 0.5 µM)
Outline: as §1

[13] = compound: CNC(=O)c1cc(Oc2ccc(NC(=O)Nc3ccc(Cl)c(C(F)(F)F)c3)cc2)ccn1 [Sorafenib] + CCNC(=O)c1noc(-c2cc(C(C)C)c(O)cc2O)c1-c1ccc(CN2CCOCC2)cc1 [Luminespib] (partner 0.01 µM)
Outline: as §1

[14] = compound: CNC(=O)c1cc(Oc2ccc(NC(=O)Nc3ccc(Cl)c(C(F)(F)F)c3)cc2)ccn1 [Sorafenib] + COc1cccc2cc(-c3nc([C@H]4CC[C@H](C(=O)O)CC4)n4ncnc(N)c34)[nH]c12 [OSI-027] (partner 0.5 µM)
Outline: as §1

[15] = compound: CNC(=O)c1cc(Oc2ccc(NC(=O)Nc3ccc(Cl)c(C(F)(F)F)c3)cc2)ccn1 [Sorafenib] + Cc1cc(Nc2cc(N3CCN(C)CC3)nc(Sc3ccc(NC(=O)C4CC4)cc3)n2)n[nH]1 [Tozasertib] (partner 0.1 µM)
Outline: as §1

[16] = compound: CNC(=O)c1cc(Oc2ccc(NC(=O)Nc3ccc(Cl)c(C(F)(F)F)c3)cc2)ccn1 [Sorafenib] + Cc1nc(Nc2ncc(C(=O)Nc3c(C)cccc3Cl)s2)cc(N2CCN(CCO)CC2)n1 [Dasatinib] (partner 0.075 µM)
Outline: as §1

[17] = compound: CNC(=O)c1cc(Oc2ccc(NC(=O)Nc3ccc(Cl)c(C(F)(F)F)c3)cc2)ccn1 [Sorafenib] + N=C(N)NC(=N)NCCc1ccccc1 [Phenformin] (partner 250 µM)
Outline: as §1

[18] = compound: CNC(=O)c1cc(Oc2ccc(NC(=O)Nc3ccc(Cl)c(C(F)(F)F)c3)cc2)ccn1 [Sorafenib] + NC(=O)Nc1cc(-c2cccc(F)c2)sc1C(=O)N[C@H]1CCCNC1 [AZD7762] (partner 0.2 µM)
Outline: as §1

[19] = compound: CNC(=O)c1cc(Oc2ccc(NC(=O)Nc3ccc(Cl)c(C(F)(F)F)c3)cc2)ccn1 [Sorafenib] + Nc1nc2[nH]cc(CCc3ccc(C(=O)N[C@@H](CCC(=O)O)C(=O)O)cc3)c2c(=O)[nH]1 [Pemetrexed] (partner 0.2 µM)
Outline: as §1

[20] = compound: CNC(=O)c1cc(Oc2ccc(NC(=O)Nc3ccc(Cl)c(C(F)(F)F)c3)cc2)ccn1 [Sorafenib] + Nc1ncn([C@H]2C[C@H](O)[C@@H](CO)O2)c(=O)n1 [Decitabine] (partner 2 µM)
Outline: as §1

[21] = compound: CNC(=O)c1cc(Oc2ccc(NC(=O)Nc3ccc(Cl)c(C(F)(F)F)c3)cc2)ccn1 [Sorafenib] + O=C(CCCCCCC(=O)Nc1ccccc1)NO [Vorinostat] (partner 1 µM)
Outline: as §1

NCI-H1299
relative viability ([1]; 0.08 µM): 1.02 | relative viability ([1]; 0.253 µM): 0.963 | relative viability ([1]; 2.53 µM): 0.957 | relative viability ([1]; 8 µM): 0.922 | relative viability ([2]; first compound 0.08 µM): 1.02 | relative viability ([2]; first compound 0.253 µM): 1.04 | relative viability ([2]; first compound 2.53 µM): 1.01 | relative viability ([2]; first compound 8 µM): 0.952 | relative viability ([3]; first compound 0.08 µM): 1.07 | relative viability ([3]; first compound 0.253 µM): 1.05 | relative viability ([3]; first compound 2.53 µM): 1.01 | relative viability ([3]; first compound 8 µM): 0.573 | relative viability ([4]; first compound 0.08 µM): 1.09 | relative viability ([4]; first compound 0.253 µM): 1.08 | relative viability ([4]; first compound 2.53 µM): 1.02 | relative viability ([4]; first compound 8 µM): 1.05 | relative viability ([5]; first compound 0.08 µM): 0.933 | relative viability ([5]; first compound 0.253 µM): 0.86 | relative viability ([5]; first compound 2.53 µM): 0.874 | relative viability ([5]; first compound 8 µM): 0.802 | relative viability ([6]; first compound 0.08 µM): 0.867 | relative viability ([6]; first compound 0.253 µM): 0.487 | relative viability ([6]; first compound 2.53 µM): 0.64 | relative viability ([6]; first compound 8 µM): 0.253 | relative viability ([7]; first compound 0.08 µM): 0.9 | relative viability ([7]; first compound 0.253 µM): 0.859 | relative viability ([7]; first compound 2.53 µM): 0.907 | relative viability ([7]; first compound 8 µM): 0.688 | relative viability ([8]; first compound 0.08 µM): 0.947 | relative viability ([8]; first compound 0.253 µM): 0.88 | relative viability ([8]; first compound 2.53 µM): 0.875 | relative viability ([8]; first compound 8 µM): 0.946 | relative viability ([9]; first compound 0.08 µM): 1.06 | relative viability ([9]; first compound 0.253 µM): 0.982 | relative viability ([9]; first compound 2.53 µM): 0.962 | relative viability ([9]; first compound 8 µM): 0.877 | relative viability ([10]; first compound 0.08 µM): 0.903 | relative viability ([10]; first compound 0.253 µM): 0.894 | relative viability ([10]; first compound 2.53 µM): 0.882 | relative viability ([10]; first compound 8 µM): 0.537

SW 900
relative viability ([1]; 0.08 µM): 0.996 | relative viability ([1]; 0.253 µM): 0.781 | relative viability ([1]; 2.53 µM): 1.13 | relative viability ([1]; 8 µM): 0.865 | relative viability ([11]; first compound 0.253 µM): 0.792 | relative viability ([11]; first compound 2.53 µM): 0.934 | relative viability ([11]; first compound 8 µM): 0.719 | relative viability ([12]; first compound 0.08 µM): 0.566 | relative viability ([12]; first compound 0.253 µM): 0.568 | relative viability ([12]; first compound 2.53 µM): 0.498 | relative viability ([12]; first compound 8 µM): 0.63 | relative viability ([13]; first compound 0.08 µM): 0.147 | relative viability ([13]; first compound 0.253 µM): 0.16 | relative viability ([13]; first compound 2.53 µM): 0.171 | relative viability ([13]; first compound 8 µM): 0.165 | relative viability ([4]; first compound 0.08 µM): 1.2 | relative viability ([4]; first compound 0.253 µM): 0.888 | relative viability ([4]; first compound 2.53 µM): 0.782 | relative viability ([4]; first compound 8 µM): 0.604 | relative viability ([14]; first compound 0.08 µM): 0.842 | relative viability ([14]; first compound 0.253 µM): 0.427 | relative viability ([14]; first compound 2.53 µM): 0.579 | relative viability ([14]; first compound 8 µM): 0.49 | relative viability ([15]; first compound 0.08 µM): 0.718 | relative viability ([15]; first compound 0.253 µM): 0.467 | relative viability ([15]; first compound 2.53 µM): 0.402 | relative viability ([15]; first compound 8 µM): 0.316 | relative viability ([16]; first compound 0.08 µM): 0.544 | relative viability ([16]; first compound 0.253 µM): 0.481 | relative viability ([16]; first compound 2.53 µM): 0.545 | relative viability ([16]; first compound 8 µM): 0.343 | relative viability ([17]; first compound 0.08 µM): 0.871 | relative viability ([17]; first compound 0.253 µM): 0.602 | relative viability ([17]; first compound 2.53 µM): 0.461 | relative viability ([17]; first compound 8 µM): 0.22 | relative viability ([18]; first compound 0.08 µM): 0.675 | relative viability ([18]; first compound 0.253 µM): 0.571 | relative viability ([18]; first compound 2.53 µM): 0.571 | relative viability ([18]; first compound 8 µM): 0.377 | relative viability ([19]; first compound 0.08 µM): 0.462 | relative viability ([19]; first compound 0.253 µM): 0.479 | relative viability ([19]; first compound 2.53 µM): 0.517 | relative viability ([19]; first compound 8 µM): 0.471 | relative viability ([20]; first compound 0.08 µM): 0.397 | relative viability ([20]; first compound 0.253 µM): 0.56 | relative viability ([20]; first compound 2.53 µM): 0.418 | relative viability ([20]; first compound 8 µM): 0.475 | relative viability ([21]; first compound 0.08 µM): 0.71 | relative viability ([21]; first compound 0.253 µM): 0.398 | relative viability ([21]; first compound 2.53 µM): 0.72 | relative viability ([21]; first compound 8 µM): 0.618 | relative viability ([10]; first compound 0.08 µM): 0.764 | relative viability ([10]; first compound 0.253 µM): 0.88 | relative viability ([10]; first compound 2.53 µM): 0.909 | relative viability ([10]; first compound 8 µM): 0.34
